{"source": "paper PMC6383678", "about": "(Biochimica et biophysica acta. Biomembranes, 2019)", "molecular_target": "A2aR (hA2aR) (Homo sapiens, UniProt P29274)", "sequence (P29274 whole entry)": "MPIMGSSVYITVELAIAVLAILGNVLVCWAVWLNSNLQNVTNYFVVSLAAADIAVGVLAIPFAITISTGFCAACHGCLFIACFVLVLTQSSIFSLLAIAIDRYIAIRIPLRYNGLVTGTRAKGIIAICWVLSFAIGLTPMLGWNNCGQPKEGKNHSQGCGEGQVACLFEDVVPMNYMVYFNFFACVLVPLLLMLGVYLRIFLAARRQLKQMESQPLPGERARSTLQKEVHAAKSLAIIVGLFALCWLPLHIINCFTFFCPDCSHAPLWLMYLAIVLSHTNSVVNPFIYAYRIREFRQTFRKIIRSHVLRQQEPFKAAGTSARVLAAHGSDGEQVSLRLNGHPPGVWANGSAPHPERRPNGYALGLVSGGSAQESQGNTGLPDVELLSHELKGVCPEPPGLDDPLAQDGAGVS", "experiment": "flow cytometry, fluorescent agonist equilibrium binding to HEK293-A2aR cells", "type": "cell-based"}
{"smiles": "CCNC(=O)[C@H]1O[C@@H](n2cnc3c(N)nc(NCCc4ccc(CCC(=O)NCCNC(=S)Nc5ccc6c(c5)C(=O)OC65c6ccc(O)cc6Oc6cc(O)ccc65)cc4)nc32)[C@H](O)[C@@H]1O", "note": "[FITC-APEC]", "values": [{"measurement": "equilibrium ligand binding", "result": "equilibrium ligand binding of the fluorescent agonist APEC-FITC was unchanged following cholesterol depletion"}]}
